PubChem BioAssay AID2060484 (Molecular Pharmacology Branch, DTP, NCI, 2025)
pIC50: −log10 of the molar value. “And” between values parts separate entries of the source, which are not always exact repeats. Equal entries are not always repeated.

Tested on: SUM149PT spheroids with HUVEC/MSC, viability
Experiment: Anticancer human tumor SUM149PT cell line growth inhibition [GQUAD];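 note: spheroids exposed to drugs for seven days before readout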;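 for viability, T/C: percent viability relative to DMSO vehicle control taken as 100%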
Conditions: for viability, T/C: stronger effect = lower value
Description: DNA G-quadruplex Stabilizer Agents in Combinations in Complex Spheroids
A high-throughput screen of multi-cell type tumor spheroids was designed to identify active combinations of DNA G-quadruplex stabilizer agents and targeted small molecules. Complex spheroids include a stromal component modeled by human endothelial cells (HUVEC) and fibroblasts modeled by human mesenchymal stem cells (MSCs). The concentration ranges selected for each drug and investigational agent were based upon clinically achievable concentrations if the clinical Cmax of the agent was known.
Compounds. The drugs and investigational agents: pidnarulex (CX-5461; NSC782164), APTO-253 (NSC789042), BRACO-19 (NSC847499), peposertib (NSC802822), ceralasertib (NSC780249), elimusertib (NSC800525), camonsertib (NSC841442), AZD-1390 (NSC803789), olaparib (NSC753686), talazoparib (NSC767125), ART-558 (NSC835418), sotorasib (NSC818433), MRTX-1133 (NSC836407), SN-38 (NSC673596), topotecan (NSC609699), etoposide (NSC141540), doxorubicin (NSC123127), gemcitabine (NSC613327), 5-fluorouracil (NSC19893), paclitaxel (NSC125973), vemurafenib (NSC761431), panobinostat (NSC761190), R-306465 (JNJ-16241199; NSC773264), adavosertib (NSC754352), TP-3654 (NSC805149), carboplatin (NSC241240), KSQ-4279 (NSC840948), and staurosporine (NSC755774) were obtained from the National Cancer Institute (NCI) Developmental Therapeutics Program Chemical Repository (34). The FDA-approved anticancer drug set is available from the NCI Developmental Therapeutics Program. […] The stock solutions were prepared in dimethyl sulfoxide (DMSO, Sigma-Aldrich, St. Louis, MO, cat. D2650) at 800-fold the tested concentration and stored at -70 degrees C prior to their use. All drugs and investigational agents were tested over a range starting from a high concentration at or near the clinical Cmax and decreasing in half-log increments. If the clinical Cmax for an agent had not been determined, the highest concentration tested was 10 microM.
2.3 Cell Culture. All cells were maintained in an incubator at 37 degrees C and 5% CO2 with 95% humidity. The PDC lines were cultured according to standard operating procedures established by the NCI PDMR. All PDCs were thawed and cultured in Matrigel-coated flasks prepared with a working solution of 1X Ham's F-12 nutrient mix, without supplementation (Invitrogen, cat. 11765054), 100 U/mL penicillin-streptomycin (Invitrogen, cat. 15140122), and 2.5% Matrigel (Corning Inc., cat. 354248) for the first three passages. The 857933-349-R-J2-PDC line was cultured in 6C/Colon 1B media, which includes advanced DMEM/F-12 (Thermo Fisher Scientific, cat. 12634028), 10 mM HEPES (Thermo Fisher Scientific, cat. 15630080), 1X GlutaMAX supplement (Thermo Fisher Scientific, cat. 35050061), 0.1 mg/mL primocin (InvivoGen, cat. ant-pm-2), 10% defined fetal bovine serum, heat inactivated (HyClone Laboratories Inc., cat. SH30070.03HI), 50% L-WRN conditioned media (ATCC, cat. CRL-3276), 1.25 mM N-Acetyl-L-cysteine (Sigma-Aldrich, cat. A9165), 10 mM nicotinamide (Sigma-Aldrich, cat. N0636), 1X B-27 supplement (Thermo Fisher Scientific, cat. 17504044), 1X N-2 supplement (Thermo Fisher Scientific, cat. 17502048), 10 microM Y-27632 dihydrochloride (Tocris Bioscience, cat. 1254), and 50 ng/mL human EGF recombinant protein (Thermo Fisher Scientific, cat. PHG0311). The 485176-168-R4-J1-PDC line was cultured in Panc media, which includes all 6C/Colon 1B media components plus 100 ng/mL human FGF-10 (Thermo Fisher Scientific, cat. 100-26), 500 nM SB-431542 (Selleckchem, cat. S1067), and gastrin (Tocris, cat. 3006).
[…]

SMILES	viability, T/C (compound 0.0316 µM)	viability, T/C (compound 0.1 µM)	viability, T/C (compound 0.316 µM)	viability, T/C (compound 1 µM)	viability, T/C (compound 3.16 µM)	viability, T/C (compound 10 µM)	pIC50 (curve of compound)	viability, T/C (compound 0.000999 µM)	viability, T/C (compound 0.00316 µM)	viability, T/C (compound 0.00999 µM)	viability, T/C (compound 0.0999 µM)	pIC50 (compound alone, run of 03/26/2024)	IC50 (compound alone, run of 03/18/2024)
C=CC(=O)N1CCN(c2nc(=O)n(-c3c(C)ccnc3C(C)C)c3nc(-c4c(O)cccc4F)c(F)cc23)C(C)C1 (stereo not given)	96.6% and 99.6% and 101%	94.5% and 96.4% and 104%	114% and 106% and 105%	111% and 110% (2×)	120% and 113% and 117%	109% and 101% and 114%	< 5.00	–	–	–	–	–	–
CC(C)n1c(=O)n(C)c2cnc3cc(F)c(-c4ccc(OCCCN5CCCCC5)nc4)cc3c21	96.3% and 102% and 96.4%	87.4% and 89.6% and 75.7%	94.5% and 98.5% and 85.1%	101% and 94.2% and 96.9%	98.9% and 96.3% and 105%	67.4% and 66.7% and 62.4%	< 5.00	–	–	–	–	–	–
CC1COCCN1c1cc(-c2ccnn2C)c2ccnc(-c3ccn[nH]3)c2n1 (stereo not given)	98.3% and 92.2% and 83.5%	55.4% and 45.4% and 34.2%	26% and 26.5% and 18%	19.7% and 28.9% and 18.2%	25.6% and 25.3% and 21.7%	30% and 31.4% and 23.9%	6.91 and 7.05 and 7.16	–	–	–	–	–	–
CC1COCCN1c1cc(C2(O)CC3CCC(C2)O3)c2cnn(-c3ccn[nH]3)c2n1 (stereo not given)	71.4% and 88.3% and 80.1%	28.2% and 38.6% and 42.2%	23.5% and 28.2% and 31.8%	21.8% and 24.9% and 25.9%	19.8% and 24.2% and 26.4%	14.5% and 15.5% and 18.8%	7.25 and 7.10 and 7.08	–	–	–	–	–	–
CC1COCCN1c1cc(C2(S(C)(=N)=O)CC2)nc(-c2ccnc3[nH]ccc23)n1 (stereo not given)	95.4% and 101% (2×)	98.2% and 91% and 98.3%	96% and 99.7% and 94.1%	86.7% and 83.5% and 77.8%	39% and 44.6% and 81.2%	24.2% and 26.8% and 16.7%	5.62 and 5.57 and 5.28	–	–	–	–	–	–
CC[C@@]1(O)C(=O)OCc2c1cc1n(c2=O)Cc2cc3c(CN(C)C)c(O)ccc3nc2-1	84.5% and 87.9% and 69.8%	–	49.1% and 51.8% and 48.5%	–	–	–	7.05 and < 6.50 and 7.12	105% (2×) and 108%	94.7% and 93.8% and 94.1%	98% and 95.1% and 105%	43.6% and 53.2% and 39.2%	–	–
CCc1c2c(nc3ccc(O)cc13)-c1cc3c(c(=O)n1C2)COC(=O)[C@]3(O)CC	36% and 47.2% and 30.2%	–	16.4% and 21.9% and 12.8%	–	–	–	–	65.9% and 72.5% and 67.1%	36% and 43.4% and 27.6%	44% and 61.2% and 38.6%	27% and 38.1% and 23.1%	–	–
CN(C)c1ccc(Nc2c3ccc(NC(=O)CCN4CCCC4)cc3nc3cc(NC(=O)CCN4CCCC4)ccc23)cc1	102% [middle of 12 runs]	101% [middle of 12 runs]	99.9% [middle of 11 runs]	90% [middle of 12 runs]	86.2% [middle of 12 runs]	86% [middle of 12 runs]	–	–	–	–	–	< 5.00	–
COc1cc(C2c3cc4c(cc3C(OC3OC5COC(C)OC5C(O)C3O)C3COC(=O)C23)OCO4)cc(OC)c1O (stereo not given)	99.6% and 98.6% and 97.5%	88.2% and 81.7% (2×)	55.6% and 52.5% and 61.4%	49.3% and 48.9% and 58.8%	36% and 29.3% and 42.2%	18.6% and 14.3% and 22%	6.08 and 6.19 and 5.87	–	–	–	–	–	–
COc1ccc([C@@H](O)c2cc(-c3ncnc4cc(N5CCOCC5)ccc34)c(F)cc2Cl)nn1	91.9% and 96.4% and 101%	89.4% and 85.8% and 88.5%	82.2% and 83.3% and 78.4%	55.6% and 57.7% and 45%	35% and 38.2% and 27.2%	22.3% and 28.1% and 20.7%	5.85 and 5.79 and 6.06	–	–	–	–	–	–
COc1cccc2c1C(=O)c1c(O)c3c(c(O)c1C2=O)CC(O)(C(=O)CO)CC3OC1CC(N)C(O)C(C)O1 (stereo not given)	89.5% and 100% and 94%	56.8% and 67.1% and 55.3%	39.5% and 52.4% and 38.2%	16.9% and 25.1% and 15.2%	1.91% and 4.16% and 1.88%	1.41% and 1.73% and 1.61%	6.80 and 6.57 and 6.83	–	–	–	–	–	–
Cc1[nH]c2ccccc2c1CCNCc1ccc(/C=C/C(=O)NO)cc1	94.4% and 97.2% and 110%	–	41.8% and 37.1% and 34.2%	–	–	–	6.58 and 6.62 and 6.61	104% and 108% and 97.7%	106% and 89.7% and 105%	90.3% and 107% and 101%	92.1% and 91.4% and 106%	–	–
Cc1cccc(N(C)C(=O)C2C(O)CCN2c2nc(C)cc(C(F)(F)F)c2C#N)c1 (stereo not given)	104% and 99.7% and 111%	97.8% and 92.2% and 88.8%	82.7% and 99.5% and 103%	89% and 97.5% and 98.3%	102% and 110% and 105%	103% and 108% and 100%	< 5.00	–	–	–	–	–	–
Cc1cnc(CNC(=O)c2c(=O)c3ccc(N4CCCN(C)CC4)nc3n3c2sc2ccccc23)cn1	87.8% [middle of 12 runs]	70% [middle of 12 runs]	57.5% [middle of 12 runs]	46.9% [middle of 12 runs]	36.2% [middle of 12 runs]	–	–	–	–	–	–	–	725 nM [middle of 12 runs]
Cn1ncnc1[C@H]1c2n[nH]c(=O)c3cc(F)cc(c23)N[C@@H]1c1ccc(F)cc1	81.4% and 91.5% and 83.6%	–	54.4% and 76.8% and 53.9%	–	–	–	< 6.50	98.5% and 103% and 109%	97.1% and 96.5% and 102%	97.5% and 93.8% and 91.6%	68.1% (2×) and 91.5%	–	–
O=C(c1cc(Cc2n[nH]c(=O)c3ccccc23)ccc1F)N1CCN(C(=O)C2CC2)CC1	92.5% and 110% and 104%	97.8% and 93.5% and 82.5%	92.7% and 102% and 99.8%	108% and 96.9% and 101%	106% and 108% and 97.4%	70.6% and 86.7% and 69.7%	< 5.00	–	–	–	–	–	–
